Experimental data: PMC12198282, “Application of a high-density microelectrode array assay using a 3D human iPSC-derived brain microphysiological system model for in vitro neurotoxicity screening of environmental compounds” (Archives of Toxicology, 2025)
Entries after “also recorded” stand apart in the source; their conditions may differ. Like-named read-outs stand apart in the source and are kept apart here.

Columns and labels:
2D rat cortical cultures = settings: cited from earlier work; for hitc CCTE_Shafer_MEA_dev_active_electrodes_number / hitc CCTE_Shafer_MEA_dev_burst_duration_mean / hitc CCTE_Shafer_MEA_dev_burst_rate / hitc CCTE_Shafer_MEA_dev_bursting_electrodes_number / hitc CCTE_Shafer_MEA_dev_correlation_coefficient_mean / hitc CCTE_Shafer_MEA_dev_firing_rate_mean / hitc CCTE_Shafer_MEA_dev_inter_network_spike_interval_mean / hitc CCTE_Shafer_MEA_dev_interburst_interval_mean / hitc CCTE_Shafer_MEA_dev_mutual_information_norm / hitc CCTE_Shafer_MEA_dev_network_spike_duration_std / hitc CCTE_Shafer_MEA_dev_network_spike_number / hitc CCTE_Shafer_MEA_dev_network_spike_peak / hitc CCTE_Shafer_MEA_dev_per_burst_interspike_interval / hitc CCTE_Shafer_MEA_dev_per_burst_spike_percent / hitc CCTE_Shafer_MEA_dev_per_network_spike_spike_number_mean / hitc CCTE_Shafer_MEA_dev_per_network_spike_spike_percent / hitc CCTE_Shafer_MEA_dev_spike_duration_mean: rNFA mc5 hit call; for hitc CCTE_Shafer_MEA_dev_active_electrodes_number: aenm active_electrodes_number; for hitc CCTE_Shafer_MEA_dev_burst_duration_mean: aenm burst_duration_mean; for hitc CCTE_Shafer_MEA_dev_burst_rate: aenm burst_rate; for hitc CCTE_Shafer_MEA_dev_bursting_electrodes_number: aenm bursting_electrodes_number; for hitc CCTE_Shafer_MEA_dev_correlation_coefficient_mean: aenm correlation_coefficient_mean; for hitc CCTE_Shafer_MEA_dev_firing_rate_mean: aenm firing_rate_mean; for hitc CCTE_Shafer_MEA_dev_inter_network_spike_interval_mean: aenm inter_network_spike_interval_mean; for hitc CCTE_Shafer_MEA_dev_interburst_interval_mean: aenm interburst_interval_mean; for hitc CCTE_Shafer_MEA_dev_mutual_information_norm: aenm mutual_information_norm; for hitc CCTE_Shafer_MEA_dev_network_spike_duration_std: aenm network_spike_duration_std; for hitc CCTE_Shafer_MEA_dev_network_spike_number: aenm network_spike_number; for hitc CCTE_Shafer_MEA_dev_network_spike_peak: aenm network_spike_peak; for hitc CCTE_Shafer_MEA_dev_per_burst_interspike_interval: aenm per_burst_interspike_interval; for hitc CCTE_Shafer_MEA_dev_per_burst_spike_percent: aenm per_burst_spike_percent; for hitc CCTE_Shafer_MEA_dev_spike_duration_mean: aenm spike_duration_mean; for AC50: rNFA mc5
BrainSpheres = assay: Cytotoxicity evaluation, resazurin assay (BrainSphere.Cyto); format: cell-based, human; settings: for AC50: Homo sapiens, 312 h, day 13, Supplement 3 prints it also for curves with hit call 0, read-out: ac50 BrainSphere.Cyto; on hitc BrainSphere.Cyto: key: 1 (active); 0 (inactive)
Protocol: For the resazurin assay, BrainSpheres were cultured for 7 weeks in non-treated 6-well plates under gyratory shaking. Subsequently, the cells were exposed in the same manner as the HD-MEA plates. This assay was used to determine cell viability after exposure for 13 days to the different compounds. After exposure, resazurin diluted in PBS was added directly to the 6-well plates to a final concentration of 0.1 mg/ml. The plates were then put in an incubator for 3 h at 37 °C, 5% CO2. Then, 100 µl of the media was collected and transferred in a 96-well plate for fluorescence analysis, which was done at ex:530 nm/em:590 nm in a multi-well fluorometric reader CytoFluor series 4000 (PerSeptive Biosystems, Inc).
Ten metrics were measured to evaluate changes in neural activity in the BrainSphere MEA assay (Table 3). Considering the complexity of the data which includes seven recording days for each single ROI in a well, an area under the curve (AUC) metric was used to reduce activity across time as described in previous publications (Brown et al. [2016]; Frank et al. [2017b]; Shafer et al. [2019]). […] For concentration–response modeling, the mean AUC values across all the BrainSpheres per well (technical replicates) was computed for each endpoint, such that each concentration included biological replicates from at least three separate wells on three separate plates, representing each individual experiment. The mean AUC values were used for concentration–response modeling using the R package tcplfit2 (version 0.1.6) (Sheffield et al. [2022]). Data were normalized as a percent of vehicle control wells by plate using the equation: resp.pc=rval-bval/bval×100 where resp.pc is the percent of control value, rval is the response value, and bval is the baseline value (defined as the mean of the vehicle control and the lowest tested concentration). […] The activity cutoff was defined as 3 times the median absolute deviation (bmad) of baseline values. A curve was defined as ‘active’ if the continuous hit call was ≥ 0.9. See Supplemental Table 1 for the bmad, activity cutoff threshold, SD, and benchmark response for each endpoint in the BrainSphere MEA. Potency was defined as the concentration at 50% maximal activity (AC50 log10 µM).

[1] = aenm per_network_spike_spike_number_mean
[2] = aenm per_network_spike_spike_percent
[3] = ref Brown et al. [2016], Carstens et al. [2022], Frank et al. [2017b], Shafer et al. [2019], ToxCast invitrodb (v4.2)
Wherever hitc CCTE Shafer MEA dev active electrodes number is given: key: 1 (active); 0 (inactive).
Wherever hitc CCTE Shafer MEA dev burst duration mean is given: key: 1 (active); 0 (inactive).
Wherever hitc CCTE Shafer MEA dev burst rate is given: key: 1 (active); 0 (inactive).
Wherever hitc CCTE Shafer MEA dev bursting electrodes number is given: key: 1 (active); 0 (inactive).
Wherever hitc CCTE Shafer MEA dev correlation coefficient mean is given: key: 1 (active); 0 (inactive).
Wherever hitc CCTE Shafer MEA dev firing rate mean is given: key: 1 (active); 0 (inactive).
Wherever hitc CCTE Shafer MEA dev inter network spike interval mean is given: key: 1 (active); 0 (inactive).
Wherever hitc CCTE Shafer MEA dev interburst interval mean is given: key: 1 (active); 0 (inactive).
Wherever hitc CCTE Shafer MEA dev mutual information norm is given: key: 1 (active); 0 (inactive).
Wherever hitc CCTE Shafer MEA dev network spike duration std is given: key: 1 (active); 0 (inactive).
Wherever hitc CCTE Shafer MEA dev network spike number is given: key: 1 (active); 0 (inactive).
Wherever hitc CCTE Shafer MEA dev network spike peak is given: key: 1 (active); 0 (inactive).
Wherever hitc CCTE Shafer MEA dev per burst interspike interval is given: key: 1 (active); 0 (inactive).
Wherever hitc CCTE Shafer MEA dev per burst spike percent is given: key: 1 (active); 0 (inactive).
Wherever hitc CCTE Shafer MEA dev per network spike spike number mean is given: key: 1 (active); 0 (inactive).
Wherever hitc CCTE Shafer MEA dev per network spike spike percent is given: key: 1 (active); 0 (inactive).
Wherever hitc CCTE Shafer MEA dev spike duration mean is given: key: 1 (active); 0 (inactive).

## CC1(C)S[C@@H]2[C@H](NC(=O)[C@H](N)c3ccc(O)cc3)C(=O)N2[C@H]1C(=O)O [Amoxicillin]
2D rat cortical cultures
  hitc CCTE_Shafer_MEA_dev_active_electrodes_number: 0
  hitc CCTE_Shafer_MEA_dev_burst_duration_mean: 0
  hitc CCTE_Shafer_MEA_dev_burst_rate: 0
  hitc CCTE_Shafer_MEA_dev_bursting_electrodes_number: 0
  hitc CCTE_Shafer_MEA_dev_correlation_coefficient_mean: 0
  hitc CCTE_Shafer_MEA_dev_firing_rate_mean: 0
  hitc CCTE_Shafer_MEA_dev_inter_network_spike_interval_mean: 0
  hitc CCTE_Shafer_MEA_dev_interburst_interval_mean: 0
  hitc CCTE_Shafer_MEA_dev_mutual_information_norm: 0
  hitc CCTE_Shafer_MEA_dev_network_spike_duration_std: 0
  hitc CCTE_Shafer_MEA_dev_network_spike_number: 0
  hitc CCTE_Shafer_MEA_dev_network_spike_peak: 0
  hitc CCTE_Shafer_MEA_dev_per_burst_interspike_interval: 0
  hitc CCTE_Shafer_MEA_dev_per_burst_spike_percent: 0
  hitc CCTE_Shafer_MEA_dev_spike_duration_mean: 0
2D rat cortical cultures; [1]
  hitc CCTE_Shafer_MEA_dev_per_network_spike_spike_number_mean: 0
2D rat cortical cultures; [2]
  hitc CCTE_Shafer_MEA_dev_per_network_spike_spike_percent: 0
2D rat cortical cultures; [3]
  Bioactivity in the rNFA (in words): negative in the rNFA; also recorded: inactive in the rNFA; also recorded: inactivity across all metrics in both models
BrainSpheres; resazurin
  AC50: 45 µM
BrainSpheres; human
  Cytotoxicity hit: 0
BrainSpheres; resazurin, day 13, tcplfit2
  hitc BrainSphere.Cyto: 0
BrainSpheres; tcplfit2 BMD at benchmark response (1.349*SD of baseline controls)
  BMD BrainSphere.Cyto: 94 µM

## CCCC(CCC)C(=O)O [Sodium valproate]
2D rat cortical cultures; of 17 MEA endpoints, ref Brown et al. [2016], Carstens et al. [2022], Frank et al. [2017b], Shafer et al. [2019], ToxCast invitrodb (v4.2)
  Number of active endpoints in the rNFA: two
2D rat cortical cultures; aenm per_network_spike_spike_number_mean, read-out: ac50 CCTE_Shafer_MEA_dev_per_network_spike_spike_number_mean
  AC50: 576 µM
2D rat cortical cultures; aenm per_network_spike_spike_percent, read-out: ac50 CCTE_Shafer_MEA_dev_per_network_spike_spike_percent
  AC50: 488 µM
2D rat cortical cultures
  hitc CCTE_Shafer_MEA_dev_active_electrodes_number: 0
  hitc CCTE_Shafer_MEA_dev_burst_duration_mean: 0
  hitc CCTE_Shafer_MEA_dev_burst_rate: 0
  hitc CCTE_Shafer_MEA_dev_bursting_electrodes_number: 0
  hitc CCTE_Shafer_MEA_dev_correlation_coefficient_mean: 0
  hitc CCTE_Shafer_MEA_dev_firing_rate_mean: 0
  hitc CCTE_Shafer_MEA_dev_inter_network_spike_interval_mean: 0
  hitc CCTE_Shafer_MEA_dev_interburst_interval_mean: 0
  hitc CCTE_Shafer_MEA_dev_mutual_information_norm: 0
  hitc CCTE_Shafer_MEA_dev_network_spike_duration_std: 0
  hitc CCTE_Shafer_MEA_dev_network_spike_number: 0
  hitc CCTE_Shafer_MEA_dev_network_spike_peak: 0
  hitc CCTE_Shafer_MEA_dev_per_burst_interspike_interval: 0
  hitc CCTE_Shafer_MEA_dev_per_burst_spike_percent: 0
  hitc CCTE_Shafer_MEA_dev_spike_duration_mean: 0
2D rat cortical cultures; [1]
  hitc CCTE_Shafer_MEA_dev_per_network_spike_spike_number_mean: 1
2D rat cortical cultures; [2]
  hitc CCTE_Shafer_MEA_dev_per_network_spike_spike_percent: 1
2D rat cortical cultures; [3]
  Concentrations at which active in the rNFA: exceeding 450 µM
BrainSpheres; resazurin
  AC50: 45 µM
BrainSpheres; human
  BMD BrainSphere.Cyto: 117 µM
  Cytotoxicity hit: 0
  hitc BrainSphere.Cyto: 0
